Assay results: patent US9125913B2, “Bcl-2-selective apoptosis-inducing agents for the treatment of cancer and immune diseases” (AbbVie Inc., priority 2008, dated 2015)

Legend:
FL5.12/Bcl-2 cells = assay: FL5.12/Bcl-2 cell viability assay; type: cell-based, murine; conditions: ratio of canine platelet EC50 to FL5.12/Bcl-2 EC50
Method in brief: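 Viability measured with CellTiter-Glo after 24 h compound treatment at various concentrations, following 48 h IL-3 withdrawal (no WEHI-3B medium). Cells: prolymphocytic mouse FL5.12 line stably transfected to overexpress Bcl-2, cultured at 37 °C, 5% CO2.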

GST-Bcl-2 = assay: TR-FRET binding assay, Bcl-2; conditions: TR-FRET Ki values
Method in brief: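 Ki values come from Wang's competitive-binding equation applied to TR-FRET signal (excitation 340/35 nm; emission 520/525 nm F-Bak peptide, 495/510 nm Tb antibody). Protein, probe and antibody incubated with compound 3 h at room temperature; dilution series began at 50 μM as 2× stock in 10% DMSO.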

**Q.** For `O=C(NS(=O)(=O)c1ccc(NCC2CCOCC2)c([N+](=O)[O-])c1)c1ccc(N2CCN(Cc3ccccc3-c3ccc(Cl)cc3)CC2)cc1Oc1ccc2c(c1)CCN2` [Example 140, 4-{4-[(4′-chloro-1,1′-biphenyl-2-yl)methyl]piperazin-1-yl}-2-(2,3-dihydro-1H-indol-5-yloxy)-N-({3-nitro-4-[(tetrahydro-2H-pyran-4-ylmethyl)amino]phenyl}sulfonyl)benzamide], which “Selectivity Ratio (Platelet EC50/FL5.12/Bcl-2 EC50)” value (FL5.12/Bcl-2 cells) is on record?
**A.** The value was over 23.

**Q.** What about the “Binding selectivity ratio (Bcl-XL Ki/Bcl-2 Ki)” value (shortened to “Binding selectivity ratio”) (GST-Bcl-2) of the same molecule?
**A.** The value was over 139.7.

**Q.** With `CC1(C)CCC(CN2CCN(c3ccc(C(=O)NS(=O)(=O)c4ccc(NCCCN5CCCC5)c([N+](=O)[O-])c4)c(Oc4cccc5[nH]ccc45)c3)CC2)=C(c2ccc(C(F)(F)F)cc2)C1` [Example 69, 4-[4-({4,4-dimethyl-2-[4-(trifluoromethyl)phenyl]cyclohex-1-en-1-yl}methyl)piperazin-1-yl]-2-(1H-indol-4-yloxy)-N-({3-nitro-4-[(3-pyrrolidin-1-ylpropyl)amino]phenyl}sulfonyl)benzamide] as the molecule, how does the “Selectivity Ratio (Platelet EC50/FL5.12/Bcl-2 EC50)” value (FL5.12/Bcl-2 cells) read?
**A.** The value was over 666.

**Q.** What about the “Binding selectivity ratio” value (GST-Bcl-2) of the same molecule?
**A.** Its value is 74.

**Q.** What does the source list for `CC1(C)CCC(CN2CCN(c3ccc(C(=O)NS(=O)(=O)c4ccc(NCCCN5CCCC5)c([N+](=O)[O-])c4)c(Oc4ccc5[nH]ccc5c4)c3)CC2)=C(c2ccc(Cl)cc2)C1` [Example 97, 4-(4-{[2-(4-chlorophenyl)-4,4-dimethylcyclohex-1-en-1-yl]methyl}piperazin-1-yl)-2-(1H-indol-5-yloxy)-N-({3-nitro-4-[(3-pyrrolidin-1-ylpropyl)amino]phenyl}sulfonyl)benzamide]?
**A.** Selectivity Ratio (Platelet EC50/FL5.12/Bcl-2 EC50) (FL5.12/Bcl-2 cells): 1052; Binding selectivity ratio (Bcl-XL Ki/Bcl-2 Ki) (GST-Bcl-2): 96.7

**Q.** For `CN1CCC(Nc2ccc(S(=O)(=O)NC(=O)c3ccc(N4CCN(CC5=C(c6ccc(Cl)cc6)CCCC5)CC4)cc3Oc3cccc4[nH]ccc34)cc2[N+](=O)[O-])CC1` [Example 149, 4-(4-{[2-(4-chlorophenyl)cyclohex-1-en-1-yl]methyl}piperazin-1-yl)-2-(1H-indol-4-yloxy)-N-({4-[(1-methylpiperidin-4-yl)amino]-3-nitrophenyl}sulfonyl)benzamide], which “Selectivity Ratio (Platelet EC50/FL5.12/Bcl-2 EC50)” value (FL5.12/Bcl-2 cells) is on record?
**A.** Its value is 1298.

**Q.** And the “Binding selectivity ratio” value (GST-Bcl-2)?
**A.** Its value is over 2490.6.

**Q.** How did the “Selectivity Ratio (Platelet EC50/FL5.12/Bcl-2 EC50)” value (FL5.12/Bcl-2 cells) turn out when `O=C(NS(=O)(=O)c1ccc(NCC2CCOCC2)c([N+](=O)[O-])c1)c1ccc(N2CCN(Cc3cc(CCN4CCCC4)ccc3-c3ccc(Cl)cc3)CC2)cc1Oc1cccc2[nH]ccc12` [Example 25, 4-(4-{[4′-chloro-4-(2-pyrrolidin-1-ylethyl)-1,1′-biphenyl-2-yl]methyl}piperazin-1-yl)-2-(1H-indol-4-yloxy)-N-({3-nitro-4-[(tetrahydro-2H-pyran-4-ylmethyl)amino]phenyl}sulfonyl)benzamide] was run?
**A.** The value was over 1020.

**Q.** What about the “Binding selectivity ratio” value (GST-Bcl-2) of the same molecule?
**A.** Its value is 4103.8.

**Q.** With `CN1CCC(CNc2ccc(S(=O)(=O)NC(=O)c3ccc(N4CCN(Cc5ccccc5-c5ccc(Cl)cc5)CC4)cc3Oc3ccccc3)cc2[N+](=O)[O-])CC1` [Example 88, 4-{4-[(4′-chloro-1,1′-biphenyl-2-yl)methyl]piperazin-1-yl}-N-[(4-{[(1-methylpiperidin-4-yl)methyl]amino}-3-nitrophenyl)sulfonyl]-2-phenoxybenzamide] as the molecule, how does the “Selectivity Ratio (Platelet EC50/FL5.12/Bcl-2 EC50)” value (FL5.12/Bcl-2 cells) read?
**A.** Its value is 613.

**Q.** What about the “Binding selectivity ratio” value (GST-Bcl-2) of the same molecule?
**A.** The value was 67.3.

**Q.** What does the source list for `CC1(C)CCC(CN2CCN(c3ccc(C(=O)NS(=O)(=O)c4ccc(NCCCN5CCCC5)c([N+](=O)[O-])c4)c(Oc4cccc5[nH]ccc45)c3)CC2)=C(c2ccc(Cl)cc2)C1` [Example 102, 4-(4-{[2-(4-chlorophenyl)-4,4-dimethylcyclohex-1-en-1-yl]methyl}piperazin-1-yl)-2-(1H-indol-4-yloxy)-N-({3-nitro-4-[(3-pyrrolidin-1-ylpropyl)amino]phenyl}sulfonyl)benzamide]?
**A.** Selectivity Ratio (Platelet EC50/FL5.12/Bcl-2 EC50) (FL5.12/Bcl-2 cells): 996; Binding selectivity ratio (Bcl-XL Ki/Bcl-2 Ki) (GST-Bcl-2): 64.1

**Q.** `CN(C)CCCNc1ccc(S(=O)(=O)NC(=O)c2ccc(N3CCN(CC4=C(c5ccc(Cl)cc5)CC(C)(C)CC4)CC3)cc2Oc2cccc3[nH]ccc23)cc1[N+](=O)[O-]` [Example 57, 4-(4-{[2-(4-chlorophenyl)-4,4-dimethylcyclohex-1-en-1-yl]methyl}piperazin-1-yl)-N-[(4-{[3-(dimethylamino)propyl]amino}-3-nitrophenyl)sulfonyl]-2-(1H-indol-4-yloxy)benzamide] was tested. Which “Selectivity Ratio (Platelet EC50/FL5.12/Bcl-2 EC50)” value (FL5.12/Bcl-2 cells) did it give?
**A.** Its value is 1077.

**Q.** What about the “Binding selectivity ratio” value (GST-Bcl-2) of the same molecule?
**A.** Its value is 68.7.

**Q.** What does the source list for `CN1CCC(CNc2ccc(S(=O)(=O)NC(=O)c3ccc(N4CCN(CC5=C(c6ccc(Cl)cc6)CC(C)(C)CC5)CC4)cc3Oc3ccc4[nH]ccc4c3)cc2[N+](=O)[O-])CC1` [Example 104, 4-(4-{[2-(4-chlorophenyl)-4,4-dimethylcyclohex-1-en-1-yl]methyl}piperazin-1-yl)-2-(1H-indol-5-yloxy)-N-[(4-{[(1-methylpiperidin-4-yl)methyl]amino}-3-nitrophenyl)sulfonyl]benzamide]?
**A.** Selectivity Ratio (Platelet EC50/FL5.12/Bcl-2 EC50) (FL5.12/Bcl-2 cells): >2392; Binding selectivity ratio (Bcl-XL Ki/Bcl-2 Ki) (GST-Bcl-2): 637.7

**Q.** What does the source list for `O=C(NS(=O)(=O)c1ccc(NCC2CCOCC2)c([N+](=O)[O-])c1)c1ccc(N2CCN(Cc3cc(OCCN4CCOCC4)ccc3-c3ccc(Cl)cc3)CC2)cc1Oc1cccc2[nH]ccc12` [Example 130, 4-(4-{[4′-chloro-4-(2-morpholin-4-ylethoxy)-1,1′-biphenyl-2-yl]methyl}piperazin-1-yl)-2-(1H-indol-4-yloxy)-N-({3-nitro-4-[(tetrahydro-2H-pyran-4-ylmethyl)amino]phenyl}sulfonyl)benzamide]?
**A.** Selectivity Ratio (Platelet EC50/FL5.12/Bcl-2 EC50) (FL5.12/Bcl-2 cells): >254; Binding selectivity ratio (Bcl-XL Ki/Bcl-2 Ki) (GST-Bcl-2): >4714.3

**Q.** Which results are given for `CN(C)CCCNc1ccc(S(=O)(=O)NC(=O)c2ccc(N3CCN(CC4=C(c5ccc(Cl)cc5)CC(C)(C)CC4)CC3)cc2Oc2ccc3[nH]ccc3c2)cc1C#N` [Example 172, 4-(4-{[2-(4-chlorophenyl)-4,4-dimethylcyclohex-1-en-1-yl]methyl}piperazin-1-yl)-N-[(3-cyano-4-{[3-(dimethylamino)propyl]amino}phenyl)sulfonyl]-2-(1H-indol-5-yloxy)benzamide]?
**A.** Selectivity Ratio (Platelet EC50/FL5.12/Bcl-2 EC50) (FL5.12/Bcl-2 cells): >257; Binding selectivity ratio (Bcl-XL Ki/Bcl-2 Ki) (GST-Bcl-2): 32.1

**Q.** Which “Selectivity Ratio (Platelet EC50/FL5.12/Bcl-2 EC50)” value (FL5.12/Bcl-2 cells) does the source give for `CN1CCN(Nc2ccc(S(=O)(=O)NC(=O)c3ccc(N4CCN(CC5=C(c6ccc(Cl)cc6)CC(C)(C)CC5)CC4)cc3Oc3ccc4[nH]ccc4c3)cc2[N+](=O)[O-])CC1` [Example 174, 4-(4-{[2-(4-chlorophenyl)-4,4-dimethylcyclohex-1-en-1-yl]methyl}piperazin-1-yl)-2-(1H-indol-5-yloxy)-N-({4-[(4-methylpiperazin-1-yl)amino]-3-nitrophenyl}sulfonyl)benzamide] here?
**A.** The value was 1857.

**Q.** And the “Binding selectivity ratio” value (GST-Bcl-2)?
**A.** Its value is 591.3.

**Q.** How did the “Selectivity Ratio (Platelet EC50/FL5.12/Bcl-2 EC50)” value (FL5.12/Bcl-2 cells) turn out when `CN(C)CCOc1cccc(-c2ccc(Cl)cc2)c1CN1CCN(c2ccc(C(=O)NS(=O)(=O)c3ccc(NCC4CCOCC4)c([N+](=O)[O-])c3)c(Oc3ccccc3)c2)CC1` [Example 122, 4-[4-({4′-chloro-3-[2-(dimethylamino)ethoxy]-1,1′-biphenyl-2-yl}methyl)piperazin-1-yl]-N-({3-nitro-4-[(tetrahydro-2H-pyran-4-ylmethyl)amino]phenyl}sulfonyl)-2-phenoxybenzamide] was run?
**A.** Its value is over 1259.

**Q.** What about the “Binding selectivity ratio” value (GST-Bcl-2) of the same molecule?
**A.** The value was 209.4.

**Q.** For `COc1ccc(C2=C(CN3CCN(c4ccc(C(=O)NS(=O)(=O)c5ccc(NCCCN6CCCC6)c([N+](=O)[O-])c5)c(Oc5cccc6[nH]ccc56)c4)CC3)CCC(C)(C)C2)cc1` [Example 68, 2-(1H-indol-4-yloxy)-4-(4-{[2-(4-methoxyphenyl)-4,4-dimethylcyclohex-1-en-1-yl]methyl}piperazin-1-yl)-N-({3-nitro-4-[(3-pyrrolidin-1-ylpropyl)amino]phenyl}sulfonyl)benzamide], which “Selectivity Ratio (Platelet EC50/FL5.12/Bcl-2 EC50)” value (FL5.12/Bcl-2 cells) is on record?
**A.** Its value is over 1144.

**Q.** And the “Binding selectivity ratio” value (GST-Bcl-2)?
**A.** The value was 11.4.

**Q.** `CN1CCC(Nc2ccc(S(=O)(=O)NC(=O)c3ccc(N4CCN(CC5=C(c6ccc(Cl)cc6)CCCCCC5)CC4)cc3Oc3cccc4[nH]ccc34)cc2[N+](=O)[O-])CC1` [Example 146, 4-(4-{[2-(4-chlorophenyl)cyclooct-1-en-1-yl]methyl}piperazin-1-yl)-2-(1H-indol-4-yloxy)-N-({4-[(1-methylpiperidin-4-yl)amino]-3-nitrophenyl}sulfonyl)benzamide] was tested. Which “Selectivity Ratio (Platelet EC50/FL5.12/Bcl-2 EC50)” value (FL5.12/Bcl-2 cells) did it give?
**A.** Its value is 145.

**Q.** And the “Binding selectivity ratio” value (GST-Bcl-2)?
**A.** Its value is over 14.9.

**Q.** Which “Selectivity Ratio (Platelet EC50/FL5.12/Bcl-2 EC50)” value (FL5.12/Bcl-2 cells) does the source give for `CN(C)CCCNc1ccc(S(=O)(=O)NC(=O)c2ccc(N3CCN(CC4=C(c5ccc(Cl)cc5)CC(C)(C)CC4)CC3)cc2Oc2ccc3[nH]ccc3c2)cc1S(=O)(=O)C(F)(F)F` [Example 170, 4-(4-{[2-(4-chlorophenyl)-4,4-dimethylcyclohex-1-en-1-yl]methyl}piperazin-1-yl)-N-({4-{[3-(dimethylamino)propyl]amino}-3-[(trifluoromethyl)sulfonyl]phenyl}sulfonyl)-2-(1H-indol-5-yloxy)benzamide] here?
**A.** The value was 507.

**Q.** And the “Binding selectivity ratio” value (GST-Bcl-2)?
**A.** Its value is 30.2.

**Q.** Which results are given for `CC1(C)CCC(c2ccc(Cl)cc2)=C(CN2CCN(c3ccc(C(=O)NS(=O)(=O)c4ccc(NCCCN5CCOCC5)c([N+](=O)[O-])c4)c(Oc4cccc5[nH]ccc45)c3)CC2)C1` [Example 54, 4-(4-{[2-(4-chlorophenyl)-5,5-dimethylcyclohex-1-en-1-yl]methyl}piperazin-1-yl)-2-(1H-indol-4-yloxy)-N-({4-[(3-morpholin-4-ylpropyl)amino]-3-nitrophenyl}sulfonyl)benzamide]?
**A.** Selectivity Ratio (Platelet EC50/FL5.12/Bcl-2 EC50) (FL5.12/Bcl-2 cells): >785; Binding selectivity ratio (Bcl-XL Ki/Bcl-2 Ki) (GST-Bcl-2): 108.3

**Q.** Which “Selectivity Ratio (Platelet EC50/FL5.12/Bcl-2 EC50)” value (FL5.12/Bcl-2 cells) does the source give for `CN1CCC(Nc2ccc(S(=O)(=O)NC(=O)c3ccc(N4CCN(CC5=C(c6ccc(Cl)cc6)CC(C)(C)CC5)CC4)cc3Oc3cccc4[nH]ccc34)cc2[N+](=O)[O-])CC1` [Example 103, 4-(4-{[2-(4-chlorophenyl)-4,4-dimethylcyclohex-1-en-1-yl]methyl}piperazin-1-yl)-2-(1H-indol-4-yloxy)-N-({4-[(1-methylpiperidin-4-yl)amino]-3-nitrophenyl}sulfonyl)benzamide] here?
**A.** Its value is 2305.

**Q.** And the “Binding selectivity ratio” value (GST-Bcl-2)?
**A.** The value was 2096.1.
